A melting point compilation (Tetko et al.; mined from patent text by program, amines drawn as free bases though some values may be those of a salt)

Row | SMILES | melting point
1 | CC(=O)Oc1ccccc1-c1nn2cc(-c3ccccc3)nc2s1 | 177 °C
2 | CC(C)n1c(CCN2CCN(c3cccc(C(F)(F)F)c3)CC2)nc2cc(Br)c3ccccc3c21 | 161 to 162 °C
3 | CO[C@@H]1C=C2C=C3C(=C(C)C(=O)N3C)C[C@]2(C)[C@@H](C)[C@H]1OC(=O)c1cccs1 | 148 to 153 °C
4 | CC(C)Cc1cc(OCC(=O)N(C)C)c2[nH]nc(Nc3nccs3)c2c1 | 96 to 98 °C
5 | COc1cc2c(cc1OC)CNCC2 | 139 to 141 °C
6 | Cc1nc(-n2cccc(C(F)(F)F)c2=O)sc1C(=O)NCc1ccccc1 | 203 to 204 °C
7 | CCOC(=O)c1cn(C2Cc3cc(F)ccc3C2=O)c(C(=O)OCC)n1 (stereo not given) | 138 °C
8 | CCOC(=O)c1c(C)cc2cnc(-c3ccccc3)nc2c1C | 85 to 86 °C
9 | COC(=O)C(C)c1ccc(OCCNC(=O)C2Cc3ccccc3N2S(=O)(=O)c2ccc(-c3cccc(C(F)(F)F)c3)cc2)cc1 (stereo not given) | 71 to 74 °C
10 | CN(C1CCN(Cc2cccs2)CC1)S(=O)(=O)c1ccc(Nc2nccc(Nc3ccc(F)cc3)n2)cc1 | 175 to 176 °C
11 | O=C(C=Cc1cc(O)c(O)c([N+](=O)[O-])c1)c1ccccc1O | 231 to 234 °C
12 | CO[C@H]1CC[C@H](N(C)C(=O)c2ccc3nonc3c2)CC1 | 143 to 144 °C
13 | Cc1cnc2nc(SCc3ccccc3)nn2c1 | 254 to 256 °C
14 | COc1ccc(C(O)CSCc2ccncc2)cc1 (stereo not given) | 70 to 72.5 °C
15 | C=Cc1c2c(c(C)c(C)c1N1CCN(c3ccc(OC)cc3)CC1)OC(C)(C)C2=O | 147 to 148 °C
16 | O=C(NC12CC3CC(CC(C3)C1)C2)c1ccccc1C(c1ccc(O)cc1)c1ccc(O)cc1 | 167 to 169 °C
17 | COc1cccc(CNC(=O)c2nc3cccc(OCc4ccc(C#N)cc4)c3c(=O)[nH]2)c1 | 218 to 220 °C
18 | O=C(O)c1cc(-n2c(-c3ccccc3)cc3c4ccccc4ccc32)ccc1O | 242 °C
19 | COc1cc(OC)c2c(=O)[nH]c(-c3cccc(N4CCN(CCS(C)(=O)=O)CC4)n3)nc2c1 | 243 to 244 °C
20 | CC[C@H](C1CC1)n1cc(Cl)nc(N2CCc3cc(Cl)cc(Cl)c32)c1=O | 157 to 159 °C
21 | CCCCN(CC)c1nc(C)nc2c1NC(=O)CN2c1ccc(C(C)C)cc1Br | 146 to 147 °C
22 | C[Si](C)(C)OC(CCl)(Cn1ccnc1)c1ccc(F)cc1F (stereo not given) | 88 to 89 °C
23 | COc1cc(CCCCCC2OC(=O)NC2=O)ccc1OCc1nc(-c2ccccc2)oc1C (stereo not given) | 114 to 115 °C
24 | COc1ccc(S(=O)(=O)Nc2ccccc2NC(=O)c2cc(C)nc(Cl)c2)cc1 | 150 to 151 °C
25 | COC(=O)c1cc(-c2ccccc2)c(=O)n2c1-c1sccc1S(=O)C2 (stereo not given) | 183 to 186 °C

Row | SMILES | melting point
26 | CCC(=CC(CSc1nnc(C)s1)=NO)C(C)[N+](=O)[O-] (stereo not given) | 75 to 76 °C
27 | CC(=O)N(CCCn1cncn1)C1=Nc2cccc3cccc1c23 | 128 to 129 °C
28 | O=c1[nH]c2cc(Cl)c(Cl)c(Cl)c2o1 | 253 to 254 °C
29 | CCOC(=O)c1cn(Cc2ccc(OCc3ccccc3)cc2)nc1-c1ccccc1 | 102 to 103 °C
30 | Nc1ccc(C#Cc2ccc(C#Cc3ccccc3)c([N+](=O)[O-])c2)cc1 | 175 to 177 °C
31 | COC(=O)c1cc(Cl)c(N)c(Cl)c1 | 72 to 74 °C
32 | FC(F)(F)c1ccc2nnc(-c3cccc(Cl)c3Cl)n2c1 | 100 to 101 °C
33 | CCCCCCCCCCCCCCCCCCOc1ccc2ccccc2c1 | 64 to 68 °C
34 | O=C(O)[C@@H]1CC[C@H](n2nc(-c3c(-c4ccccc4)nn4ccccc34)ccc2=O)C(=O)C1 (relative stereo) | 186 to 188 °C
35 | Cc1nc(C(C)(C)C)ccc1/C=C/C(=O)Nc1ccc2cc[nH]c2c1 | 182 °C
36 | COc1ccc(CCN2CCC(=C3c4ccn(C)c4CCn4ncnc43)CC2)cc1 | 139 °C
37 | O=C(/C=C/c1cccc(C(F)(F)F)c1)NC1CC1 | 98 °C
38 | CN1Cc2c(Br)ncn2-c2ccc(F)cc2C1=O | 200 °C
39 | O=S(=O)(F)CCCCCCCc1ccc(OCc2ccccc2)cc1 | 35 to 38 °C
40 | O=C(O)Cc1cc(C(=O)c2cc(Cl)ccc2Cl)ccc1O | 149 °C
41 | C[C@H](COS(C)(=O)=O)NC(=O)OC(C)(C)C | 65 to 68 °C
42 | Nc1nnn(C2CN3CCC2CC3)n1 (stereo not given) | 132 to 134 °C
43 | CC(C)(C)C=Cc1nn(-c2ccc(F)cc2F)c2c1C1CCC2C1 (stereo not given) | 98 to 101 °C
44 | CCSc1ccc2oc3cc(-c4nnn[nH]4)ccc3c(=O)c2c1 | 261 to 262 °C
45 | O=C1CC2CC(C1)CN(Cc1ccccc1)C2 | 89 °C
46 | CNC(=O)C(=O)CCCCCCc1cnc(-c2ccc(Br)cc2)o1 | 90 to 92 °C
47 | Cc1ccc2c(c1)C1(OCCCO1)C(=O)N2 | 128 to 130 °C
48 | COC(=O)c1cc2c(cc1N)OCCO2 | 73 to 77 °C
49 | CC(C)c1ccc(NC=CS(=O)(=O)F)cc1 | 41 to 43 °C
50 | COc1ccc(S(=O)(=O)C2(C(=O)O)CCN(Cc3ccc(Br)cc3)CC2)cc1 | 215 °C
